{"source": "paper PMC3828267", "about": "(PLoS ONE, 2013)", "key": {"α3β4 AChRs [1]": {"molecular_target": "T1, α3β4 AChRs (Homo sapiens, UniProt P30926+P32297)", "T1 construct": "expressed in transfected cells", "T1 sequence (P32297 32-505)": "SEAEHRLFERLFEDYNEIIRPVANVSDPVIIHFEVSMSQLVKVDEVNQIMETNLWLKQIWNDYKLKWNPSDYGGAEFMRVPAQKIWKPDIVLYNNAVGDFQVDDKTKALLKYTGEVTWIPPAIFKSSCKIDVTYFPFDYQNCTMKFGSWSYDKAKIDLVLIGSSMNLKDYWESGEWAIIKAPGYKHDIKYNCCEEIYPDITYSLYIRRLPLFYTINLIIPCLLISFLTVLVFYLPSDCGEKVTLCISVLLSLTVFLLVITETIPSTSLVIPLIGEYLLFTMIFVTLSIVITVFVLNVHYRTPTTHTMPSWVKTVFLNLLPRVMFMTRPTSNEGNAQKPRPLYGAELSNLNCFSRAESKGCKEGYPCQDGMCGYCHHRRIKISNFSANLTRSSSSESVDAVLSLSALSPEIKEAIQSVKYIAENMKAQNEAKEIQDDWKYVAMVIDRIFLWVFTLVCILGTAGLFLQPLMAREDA", "T1 sequence (P30926 22-498)": "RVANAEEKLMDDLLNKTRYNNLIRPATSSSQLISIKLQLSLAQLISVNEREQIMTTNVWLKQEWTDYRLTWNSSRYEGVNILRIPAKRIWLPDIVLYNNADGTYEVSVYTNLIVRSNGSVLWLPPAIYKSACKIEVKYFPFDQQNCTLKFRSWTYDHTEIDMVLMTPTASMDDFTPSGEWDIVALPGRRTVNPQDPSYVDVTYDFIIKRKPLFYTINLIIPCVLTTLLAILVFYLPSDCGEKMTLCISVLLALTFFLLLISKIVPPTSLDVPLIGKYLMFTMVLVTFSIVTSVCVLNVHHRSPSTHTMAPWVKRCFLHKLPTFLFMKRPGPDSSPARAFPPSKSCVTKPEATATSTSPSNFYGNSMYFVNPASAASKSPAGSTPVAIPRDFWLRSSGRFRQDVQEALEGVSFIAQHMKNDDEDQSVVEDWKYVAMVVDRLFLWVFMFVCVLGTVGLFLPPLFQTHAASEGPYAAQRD", "experiment": "Smoldering activation following acute desensitization, α3β4", "format": "cell-based", "conditions": "α3β4, antagonist 10 µM applied after 10 minutes", "method": "(§1) Responses were monitored for 10 minutes, and then specific antagonists were added and responses recorded for another two minutes."}, "α7 AChRs [2]": {"molecular_target": "T2, α7 AChRs (Homo sapiens, UniProt P36544)", "T2 sequence (P36544 23-502)": "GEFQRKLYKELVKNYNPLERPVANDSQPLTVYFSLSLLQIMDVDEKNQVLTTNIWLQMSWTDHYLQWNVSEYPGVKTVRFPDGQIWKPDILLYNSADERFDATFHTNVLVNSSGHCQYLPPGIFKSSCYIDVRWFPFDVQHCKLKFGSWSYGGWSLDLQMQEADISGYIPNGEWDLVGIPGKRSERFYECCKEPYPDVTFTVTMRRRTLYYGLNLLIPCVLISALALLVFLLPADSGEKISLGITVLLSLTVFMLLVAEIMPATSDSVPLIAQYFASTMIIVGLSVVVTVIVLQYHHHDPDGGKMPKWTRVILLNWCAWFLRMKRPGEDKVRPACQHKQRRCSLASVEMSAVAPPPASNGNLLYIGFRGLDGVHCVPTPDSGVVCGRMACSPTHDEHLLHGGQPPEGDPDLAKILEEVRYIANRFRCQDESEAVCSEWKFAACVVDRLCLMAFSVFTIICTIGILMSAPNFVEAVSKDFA", "conditions": "α7, antagonist 10 µM applied after 10 minutes", "method": "as §1"}, "human α4β2 AChRs [3]": {"molecular_target": "T3, human α4β2 AChRs (Homo sapiens, UniProt P17787+P43681)", "T3 construct": "expressed in transfected cells", "T3 sequence (P43681 29-627 limits assumed)": "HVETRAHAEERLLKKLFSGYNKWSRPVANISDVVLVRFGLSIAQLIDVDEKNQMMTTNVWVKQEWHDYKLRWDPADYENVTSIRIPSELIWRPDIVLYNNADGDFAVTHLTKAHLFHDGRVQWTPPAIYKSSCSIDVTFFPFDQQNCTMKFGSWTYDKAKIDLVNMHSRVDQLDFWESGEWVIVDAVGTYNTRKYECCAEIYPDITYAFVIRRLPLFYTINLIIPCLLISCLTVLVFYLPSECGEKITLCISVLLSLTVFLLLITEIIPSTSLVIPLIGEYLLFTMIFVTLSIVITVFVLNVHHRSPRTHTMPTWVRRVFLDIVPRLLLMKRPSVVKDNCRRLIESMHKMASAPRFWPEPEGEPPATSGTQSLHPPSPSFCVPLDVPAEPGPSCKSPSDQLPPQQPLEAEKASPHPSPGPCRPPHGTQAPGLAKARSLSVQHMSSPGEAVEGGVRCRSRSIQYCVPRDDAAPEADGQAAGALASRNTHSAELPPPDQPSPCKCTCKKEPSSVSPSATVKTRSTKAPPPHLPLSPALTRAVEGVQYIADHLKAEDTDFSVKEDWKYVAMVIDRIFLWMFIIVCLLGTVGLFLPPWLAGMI", "T3 sequence (P17787 26-502)": "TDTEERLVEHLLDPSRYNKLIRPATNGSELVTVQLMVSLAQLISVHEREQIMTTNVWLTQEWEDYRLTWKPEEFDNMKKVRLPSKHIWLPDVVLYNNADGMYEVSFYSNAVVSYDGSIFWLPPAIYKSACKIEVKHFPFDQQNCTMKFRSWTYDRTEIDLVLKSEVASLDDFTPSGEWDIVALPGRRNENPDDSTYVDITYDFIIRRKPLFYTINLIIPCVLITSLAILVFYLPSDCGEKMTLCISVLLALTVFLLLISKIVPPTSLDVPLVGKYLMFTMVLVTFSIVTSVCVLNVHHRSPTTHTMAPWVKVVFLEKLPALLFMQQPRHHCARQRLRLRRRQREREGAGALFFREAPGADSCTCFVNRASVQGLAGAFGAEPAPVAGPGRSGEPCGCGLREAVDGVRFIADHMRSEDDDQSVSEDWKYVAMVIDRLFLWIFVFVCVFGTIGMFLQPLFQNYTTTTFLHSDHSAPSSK", "experiment": "Acute activation, FLEXStation membrane potential dye, α4β2 cell line", "format": "cell-based", "method": "(§2) The parental cell line used for transfections was tsA201, derived from the human embryonic kidney cell line (HEK) 293 [33]. […] The cell line permanently expressing α3β4 AChRs has been described, [34]. A stable cell line expressing functional α7 AChRs was prepared by initially transfecting the tsA201 cell line with cDNA for α7 and subsequently transfecting with cDNA for the AChR-selective chaperone, human RIC-3.\n(§3) Responses to nicotinic agonists were determined using a FLEXStation microplate fluorometer (Molecular Devices, Sunnyvale, CA) as described. For cell lines expressing α4β2 and α3β4 AChRs, the cells were plated at 10^5 cells/ml (100 µl/well) in black-walled clear-bottom 96 well plates (Costar, Fisher Scientific, Pittsbugh, PA), and incubated for 48 hours prior to assaying responses to various nicotinic agonists. The α7/RIC-3 expressing cells were plated at 5×10^5/ml in black-walled clear-bottom 96 well BioCoat plates (BD Biosciences, Franklin Lakes, NJ) in the continued presence of VPA and PBA, with the addition of 5% human AB serum (Pel-Freez Biologicals, Rogers, AR) to further increase expression of α7 [35]. The cells were then grown for 24 hours prior to the assay.\n(§4) To measure responses to various nicotinic agonists, 100 µl of a fluorescent dye which is sensitive to changes in membrane potential (Molecular Devices) was added to the wells. The dye was prepared according to the manufacturer’s instructions, with the addition of atropine (0.5 µM) to block muscarinic responses. The plates were then incubated at 37°C for one hour prior to the assay. Serial dilutions of agonists were then prepared in Hanks Balanced Salt Solution (HBSS) in V-shaped 96-well plates (Fisher Scientific Co, Pittsburgh, PA). Fluorescent responses were measured in the FLEX Station at 25°C, with an excitation wavelength of 530 nm and an emission wavelength of 565 nm. Various agonists (50 µl) were added after the first 20 seconds and responses were followed for 60–120 seconds.\n(§5) Data were graphed using GraphPad Prism software. Non-linear models (sigmoidal dose-response with variable slope or two site competition) were used to fit the concentration response curves. The EC50 and IC50 were calculated from the curves. Kaleidagraph software was used to determine Hill slopes and standard errors of the EC50 and IC50."}, "α3β4 AChRs [4]": {"molecular_target": "T1, α3β4 AChRs", "experiment": "Acute activation, FLEXStation membrane potential dye, α3β4 cell line", "format": "cell-based", "conditions": "α3β4", "method": "as §2, §3, §4, §5"}, "human α4β2 AChRs [5]": {"molecular_target": "T3, human α4β2 AChRs", "experiment": "Chronic desensitization (16 h agonist, then ACh response) and calculated smoldering activation, α4β2 cell line", "format": "cell-based", "conditions": "for IC50: overnight (16 h) agonist, first (more sensitive) component, read-out: Desensitization IC50; for Hill (desensitization): first component", "method": "(§6) To measure desensitization, plates were prepared as for agonist assays. Sixteen hours prior to the assay, serial dilutions of agonists, prepared in regular growth medium, were added to the plates. One hour before the assay, the membrane potential-sensitive fluorescent dye with 0.5 µM atropine was added to the wells. […] Each data point represents the average of peak values for individual dose response curves from 4–8 wells.\nas §5\n(§7) Responses for the three different AChRs are shown in Figures 3, 4, 5, 6, along with the dose response curves for activation (the same as shown in Figure 2). The range of concentrations at which both sustained activation and desensitization can occur (“smoldering activation”) was calculated by multiplying the acute response to agonists at each concentration by the fractional response remaining after desensitization."}, "α3β4 AChRs [6]": {"molecular_target": "T1, α3β4 AChRs", "experiment": "Chronic desensitization (16 h agonist, then ACh response) and calculated smoldering activation, α3β4 cell line", "format": "cell-based", "conditions": "α3β4: 1.0 mM ACh", "method": "as §6, §5, §7"}, "(α4β2)2β2 AChRs [7]": {"molecular_target": "T4, (α4β2)2β2 AChRs (Homo sapiens, UniProt P17787+P43681)", "T4 construct": "expressed in transfected cells", "T4 sequence (P43681 29-627 limits assumed)": "as the sequence (P43681 29-627 limits assumed) above", "T4 sequence (P17787 26-502)": "as the sequence (P17787 26-502) above", "experiment": "Sazetidine-A desensitization of α4β2 cell line enriched for (α4β2)2β2 by β2 transfection and nicotine", "format": "cell-based", "conditions": "6 h sazetidine-A, 3 µM and 100 µM ACh curves overlapped", "excerpt": "To determine which stoichiometry of α4β2 AChRs was affected by sazetidine-A, we performed short term transfection of β2 subunits into the α4β2 expressing cell line. To increase the expression of the higher sensitivity (α4β2)2β2 stoichiometry, the cell line expressing α4 and β2 was cotransfected with human β2 (pRc-CMV/Geneticin) using the FuGene6 transfection agent (Roche Diagnostics, Indianapolis, IN)."}, "[8]": {"design": "method as in PMID 22899751", "conditions": "mice treated with 2 mg/kg; cited from earlier work"}, "(α4β2)2α4 AChRs": {"system": "(α4β2)2α4 AChRs", "conditions": "cited from earlier work"}, "(α4β2)2β2 AChRs [9]": {"molecular_target": "T4, (α4β2)2β2 AChRs", "conditions": "cited from earlier work"}, "α7 AChRs [10]": {"molecular_target": "T2, α7 AChRs", "experiment": "Acute activation, FLEXStation membrane potential dye, α7/RIC-3 cell line", "format": "cell-based", "design": "expressed in transfected cells; grown in VPA and PBA", "conditions": "α7", "method": "as §2, §3, §4, §5"}, "α7 AChRs [11]": {"molecular_target": "T2, α7 AChRs", "experiment": "Chronic desensitization (16 h agonist, then ACh response) and calculated smoldering activation, α7 cell line", "format": "cell-based", "design": "expressed in transfected cells; grown in VPA and PBA", "conditions": "α7: 10 µM ACh", "method": "as §6, §5, §7"}, "[12]": {"conditions": "overnight (16 h) agonist, read-out: Desensitization IC50"}}, "note": "Like-named read-outs stand apart in the source and are kept apart here."}
{"smiles": "CNC1(C)C2CCC(C2)C1(C)C", "note": "(stereo not shown) [MCA, mecamylamine]", "values": [{"measurement": "Effect of antagonist on sustained agonist response", "setting": "α3β4 AChRs [1]", "result": "abrogated"}]}
{"smiles": "CCN1C[C@]2(COC(=O)c3ccccc3N3C(=O)C[C@H](C)C3=O)CC[C@H](OC)[C@@]34[C@@H]5C[C@H]6[C@H](OC)[C@@H]5[C@](O)(C[C@@H]6OC)[C@@](O)([C@@H](OC)[C@H]23)[C@@H]14", "note": "[MLA, methyllycaconitine]", "values": [{"measurement": "Effect of antagonist on residual agonist response", "setting": "α7 AChRs [2]", "result": "abrogated"}]}
{"smiles": "OCCCCC#Cc1cncc(OC[C@@H]2CCN2)c1", "note": "[Sazetidine-A]", "values": [{"measurement": "Efficacy (%) (relative to ACh)", "setting": "human α4β2 AChRs [3]; α4β2", "result": 44, "unit": "%"}, {"measurement": "Agonist type (full or partial)", "setting": "human α4β2 AChRs [3]; α4β2, mixture of stoichiometries", "result": "partial agonist"}, {"measurement": "Hill (activation)", "setting": "human α4β2 AChRs [3]; α4β2, higher sensitivity component or monophasic curve", "result": 1.2}, {"measurement": "EC50", "setting": "human α4β2 AChRs [3]; α4β2 cell line, mixed stoichiometries, higher sensitivity component where two-site fit, else monophasic, read-out: Activation EC50", "result": "2.3 ± 0.3", "unit": "nM"}, {"measurement": "Agonist type (full or partial)", "setting": "α3β4 AChRs [4]", "result": "full agonist"}, {"measurement": "Efficacy (%) (relative to ACh)", "setting": "α3β4 AChRs [4]", "result": 100, "unit": "%"}, {"measurement": "Hill (activation)", "setting": "α3β4 AChRs [4]", "result": 1.3}, {"measurement": "EC50", "setting": "α3β4 AChRs [4]; read-out: Activation EC50", "result": "170 ± 30", "unit": "nM"}, {"measurement": "Area of overlap of activation and desensitization curves centered at", "setting": "human α4β2 AChRs [5]; (α4β2)2β2 AChRs, 3 µM ACh", "result": 1.5, "unit": "nM"}, {"measurement": "Extent of desensitization of α4β2 AChRs to ACh", "setting": "human α4β2 AChRs [5]; prolonged exposure, up to high concentrations", "result": "full desensitization was not reached even at high concentrations"}, {"measurement": "Concentration from which the desensitization dose response curve shows a plateau", "setting": "human α4β2 AChRs [5]; α4β2, assayed with 100 µM ACh", "result": "around 10 nM"}, {"measurement": "Intercept of Activation and Desensitization Curves", "setting": "human α4β2 AChRs [5]; α4β2: 3 µM ACh ((α4β2)2β2 stoichiometry), centre of smoldering activation", "result": 0.0015, "unit": "µM"}, {"measurement": "Intercept of Activation and Desensitization Curves", "setting": "human α4β2 AChRs [5]; α4β2: 3 µM ACh ((α4β2)2β2 stoichiometry), centre of smoldering activation, listed as sazetidine-A", "result": "around 0.0015 µM"}, {"measurement": "IC50", "setting": "human α4β2 AChRs [5]; α4β2: 3 µM ACh", "result": "0.48 ± 0.02", "unit": "nM"}, {"measurement": "Hill (desensitization)", "setting": "human α4β2 AChRs [5]; α4β2: 3 µM ACh", "result": "−0.9"}, {"measurement": "Intercept of Activation and Desensitization Curves", "setting": "human α4β2 AChRs [5]; α4β2: 100 µM ACh (both stoichiometries)", "result": 0.002, "unit": "µM"}, {"measurement": "IC50", "setting": "human α4β2 AChRs [5]; α4β2: 100 µM ACh", "result": "0.26 ± 0.2", "unit": "nM"}, {"measurement": "Hill (desensitization)", "setting": "human α4β2 AChRs [5]; α4β2: 100 µM ACh", "result": "−0.6"}, {"measurement": "Hill (desensitization)", "setting": "α3β4 AChRs [6]", "result": "−0.5"}, {"measurement": "IC50", "setting": "α3β4 AChRs [6]; [12]", "result": "330 ± 100", "unit": "nM"}, {"measurement": "Stoichiometry of α4β2 desensitized", "setting": "(α4β2)2β2 AChRs [7]", "result": "desensitizes only the (α4β2)2β2 stoichiometry"}, {"measurement": "Brain levels", "setting": "[8]", "result": 150, "unit": "nM"}, {"measurement": "Serum levels", "setting": "[8]", "result": 1600, "unit": "nM"}, {"measurement": "Activity", "setting": "(α4β2)2α4 AChRs; (α4β2)2α4, Xenopus oocytes expressing human α4 and β2 subunits", "result": 6, "unit": "%"}, {"measurement": "Agonist type", "setting": "(α4β2)2α4 AChRs; (α4β2)2α4, concatenated AChRs in Xenopus oocytes", "result": "partial agonist with very low efficacy"}, {"measurement": "Efficacy", "setting": "(α4β2)2α4 AChRs; (α4β2)2α4 stoichiometry, concatenated AChRs in Xenopus oocytes", "result": "< 1", "unit": "%"}, {"measurement": "Agonist type", "setting": "(α4β2)2β2 AChRs [9]; (α4β2)2β2, Xenopus oocytes expressing human α4 and β2 subunits", "result": "full agonist"}, {"measurement": "Agonist type", "setting": "(α4β2)2β2 AChRs [9]; (α4β2)2β2, concatenated AChRs in Xenopus oocytes", "result": "full agonist"}, {"measurement": "Agonist type (full or partial)", "setting": "α7 AChRs [10]", "result": "full agonist"}, {"measurement": "Efficacy (%) (relative to ACh)", "setting": "α7 AChRs [10]", "result": 100, "unit": "%"}, {"measurement": "Hill (activation)", "setting": "α7 AChRs [10]", "result": 1.6}, {"measurement": "EC50", "setting": "α7 AChRs [10]; read-out: Activation EC50", "result": "1200 ± 80", "unit": "nM"}, {"measurement": "Hill (desensitization)", "setting": "α7 AChRs [11]", "result": "−2.9"}, {"measurement": "Intercept of Activation and Desensitization Curves", "setting": "α7 AChRs [11]", "result": 1.5, "unit": "µM"}, {"measurement": "IC50", "setting": "α7 AChRs [11]; [12]", "result": "3500 ± 400", "unit": "nM"}]}
